Measurements from patent US20140066431A1, “Benzoxazepines as Inhibitors of PI3K/mTOR and Methods of Their Use and Manufacture” (Exelixis, Inc., priority 2010, published 2014).
Like-named read-outs stand apart in the source and are kept apart here.

Test system: T-47D cells (PI3Kα-H1047R mutant)
Assay: pAKT (T308) ELISA assay, T-47D
Assay type: cell-based
Conditions: Homo sapiens, T47D
Method: In another embodiment, the pAKT ELISA Assay was performed by seeding cells onto 96-well plates (Corning, 3904) in their respective growth media at the densities listed in Table 3. Cells were incubated at 37° C., 5% CO2 for 48 h (except MDA-MB-453 cells which were cultured in the absence of CO2). Compounds were serially diluted in DMSO and subsequently diluted in serum-free DMEM. Test compounds were added to cells in serum-free DMEM at a final concentration of 0.3% DMSO and incubated for 3 h. Cells were lysed with 130 μL of ice-cold RIPA lysis buffer (50 mM Tris-HCl, pH 7.5; 0.5% sodium deoxycholic acid; 1% Triton X-100; 0.1% SDS; 150 mM NaCl) with protease and phosphatase inhibitors (1 mM EDTA, 1 mM NaF, 20 mM β-glycerophosphate, 1 mM Na-orthovanadate, Complete-Mini EDTA-free, Roche, 11836170001, and Phosphatase Inhibitor Cocktail I, Sigma, P2850), directly in 96-well plates. Cells were lysed on ice for 60-120 min at 4° C. The supernatants were added directly to capture ELISA plates previously pre-coated with rabbit anti-AKT capture antibody. […] The wells were measured for luminescence using a Wallac plate reader at wavelength of 560 nm. After normalization of pAKT signal to total AKT1 signal, IC50 values were determined relative to the DMSO-treated control.

IC50 (IGF1 stimulation, Table 5, read-out: pAKT (T308) IC50 T-47D PI3Kα H1047R IGF1): 27.9 µM | IC50 (PI3KαH1047R, IGF1, Table 6, read-out: Cellular pAKT (T308) IC50 T-47D): 27.9 µM
SMILES: Cc1cc(C(C)Nc2ccccc2)c2nc(N3CCOCC3)cc(=O)n2c1 (centres unmarked) [TGX-221, 7-methyl-2-(4-morpholinyl)-9-[1-(phenylamino)ethyl]-4H-pyrido[1,2-a]pyrimidin-4-one]
